Test results as given in patent US7030245B2, “Antidepressant azahetorocyclylmethyl derivatives of 7,8-dihydro-6H-5-oxa-1-aza-phenathrene” (Wyeth, priority 2001, dated 2006).
pEC50, pKi: −log10 of the molar value. Structures can show the parent of a compound that is named as a salt.

Key:
[1] = target: T1, cloned human 5-HT1A receptors (Homo sapiens, UniProt P08908); assay: 35S-GTPγS binding assay, 5-HT1A function; assay type: biochemical; conditions: for pEC50: 35S-GTPγS binding to membranes containing cloned human 5-HT1A receptors; for Emax: maximum stimulatory effect on 35S-GTPγS binding, value in parentheses
T1 construct: expressed in transfected cells
T1 sequence (P08908 1-422): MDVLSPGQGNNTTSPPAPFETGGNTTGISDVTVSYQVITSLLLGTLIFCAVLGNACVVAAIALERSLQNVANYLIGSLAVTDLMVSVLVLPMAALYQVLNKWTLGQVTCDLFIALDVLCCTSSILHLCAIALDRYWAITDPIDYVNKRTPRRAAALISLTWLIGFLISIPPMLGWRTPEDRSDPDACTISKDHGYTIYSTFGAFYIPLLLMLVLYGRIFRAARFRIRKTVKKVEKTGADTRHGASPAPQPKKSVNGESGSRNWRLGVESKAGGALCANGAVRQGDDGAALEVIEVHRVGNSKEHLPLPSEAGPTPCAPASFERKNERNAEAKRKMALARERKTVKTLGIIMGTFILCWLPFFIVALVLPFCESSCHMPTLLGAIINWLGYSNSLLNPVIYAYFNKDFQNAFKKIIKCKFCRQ
Protocol: Agonist activity at 5-HT1A receptors was established by using a ^35S-GTPγS binding assay similar to that used by Lazareno and Birdsall (Br. J. Pharmacol. 109: 1120, 1993), in which the test compound's ability to affect the binding of ^35S-GTPγS to membranes containing cloned human 5-HT1A receptors was determined. Agonists produce an increase in binding whereas antagonists produce no increase but rather reverse the effects of the standard agonist 8-OHDPAT. The test compound's maximum stimulatory effect is represented as the Emax, while its potency is defined by the EC50.

[2] = target: T2, human 5-HT1A receptors (Homo sapiens, UniProt P08908); assay: [3H] 8-OHDPAT displacement, 5-HT1A receptor affinity; assay type: binding; conditions: displacement of [3H] 8-OHDPAT; CHO cells stably transfected with human 5-HT1A receptors
T2 construct: expressed in transfected cells; host or cells: CHO cells, stably transfected
T2 sequence (P08908 1-422): T1 sequence (P08908 1-422)
From the text: High affinity for the serotonin 5-HT1A receptor was established by testing the claimed compound's ability to displace [^3H] 8-OHDPAT (dipropylaminotetralin) from the 5-HT1A serotonin receptor following a modification of the procedure of Hall et al., J. Neurochem. 44, 1685 (1985) which utilizes CHO cells stably transfected with human 5-HT1A receptors.

[3] = target: T3, serotonin transporter (Rattus norvegicus, UniProt P31652); assay: 3H-paroxetine displacement, serotonin transporter affinity; assay type: binding
T3 construct: displace ^3H-paroxetine from male rat frontal cortical membranes; from tissue; host or cells: male rat frontal cortex membranes
T3 sequence (P31652 whole entry): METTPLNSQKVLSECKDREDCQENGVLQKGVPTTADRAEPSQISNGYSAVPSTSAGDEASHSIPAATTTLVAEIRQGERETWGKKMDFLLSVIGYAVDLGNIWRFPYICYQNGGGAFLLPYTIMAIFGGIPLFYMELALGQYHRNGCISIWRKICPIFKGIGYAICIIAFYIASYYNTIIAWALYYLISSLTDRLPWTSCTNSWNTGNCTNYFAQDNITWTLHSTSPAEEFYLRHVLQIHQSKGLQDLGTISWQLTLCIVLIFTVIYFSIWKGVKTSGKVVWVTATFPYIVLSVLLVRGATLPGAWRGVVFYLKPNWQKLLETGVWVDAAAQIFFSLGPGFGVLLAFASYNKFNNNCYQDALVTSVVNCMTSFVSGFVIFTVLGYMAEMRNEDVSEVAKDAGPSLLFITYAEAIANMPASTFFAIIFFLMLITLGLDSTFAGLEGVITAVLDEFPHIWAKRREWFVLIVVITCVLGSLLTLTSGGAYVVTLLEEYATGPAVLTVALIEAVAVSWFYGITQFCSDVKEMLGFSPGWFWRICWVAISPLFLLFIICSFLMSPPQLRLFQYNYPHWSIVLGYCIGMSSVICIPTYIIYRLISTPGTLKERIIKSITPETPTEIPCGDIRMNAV

With `Fc1ccc2[nH]cc(C3=CCN(C[C@H]4CCc5ccc6ncccc6c5O4)CC3)c2c1` (as salt: fumarate) [Example 3, (6R)-6-[4-(5-Fluoro-1H-indol-3-yl)-3,6-dihydro-2H-pyridin-1-ylmethyl]-7,8-dihydro-6H-5-oxa-1aza-phenanthrene] as the compound, how does the melting point read?
The melting point was 210 °C.

With `Fc1ccc2[nH]cc(C3=CCN(CC4CCc5ccc6ncccc6c5O4)CC3)c2c1` (centres unmarked) (as salt: oxalate) [Example 1, 6-[4-(5-Fluoro-1H-indol-3-yl)-3,6-dihydro-2H-pyridin-1-ylmethyl]-7,8-dihydro-6H-5-oxa-1aza-phenanthrene] as the compound, how does the melting point read?
Its melting point is 148 °C.

For `Fc1ccc2[nH]cc(C3=CCN(C[C@@H]4CCc5ccc6ncccc6c5O4)CC3)c2c1` (as salt: oxalate) [Example 2, (6S)-6-[4-(5-Fluoro-1H-indol-3-yl)-3,6-dihydro-2H-pyridin-1-ylmethyl]-7,8-dihydro-6H-5-oxa-1aza-phenanthrene], which melting point is on record?
The melting point was 210 °C.

With `Fc1ccc2[nH]cc(C3=CCN(CC4CCc5ccc6ncccc6c5O4)CC3)c2c1` (centres unmarked) [Example 1, 6-[4-(5-Fluoro-1H-indol-3-yl)-3,6-dihydro-2H-pyridin-1-ylmethyl]-7,8-dihydro-6H-5-oxa-1aza-phenanthrene] as the compound, how does the pEC50 [1] read?
The pEC50 was 6.99.

And the Emax [1]?
Its Emax is 49%.

And the pKi [2]?
The pKi was 7.22.

What about the pKi [3] of the same compound?
Its pKi is 8.10.

With `Fc1ccc2[nH]cc(C3=CCN(C[C@@H]4CCc5ccc6ncccc6c5O4)CC3)c2c1` [Example 2, (6S)-6-[4-(5-Fluoro-1H-indol-3-yl)-3,6-dihydro-2H-pyridin-1-ylmethyl]-7,8-dihydro-6H-5-oxa-1aza-phenanthrene] as the compound, how does the Emax [1] read?
The Emax was 5%.

And the pKi [2]?
Its pKi is 7.05.

What about the pKi [3] of the same compound?
The pKi was 8.22.

With `Fc1ccc2[nH]cc(C3=CCN(C[C@H]4CCc5ccc6ncccc6c5O4)CC3)c2c1` [Example 3, (6R)-6-[4-(5-Fluoro-1H-indol-3-yl)-3,6-dihydro-2H-pyridin-1-ylmethyl]-7,8-dihydro-6H-5-oxa-1aza-phenanthrene] as the compound, how does the pEC50 [1] read?
Its pEC50 is 7.10.

And the Emax [1]?
The Emax was 52%.

What about the pKi [2] of the same compound?
The pKi was 7.08.

What about the pKi [3] of the same compound?
Its pKi is 8.22.
